Reference: US20260240842A1, “METHODS TO PREVENT THERAPY RESISTANCE IN MELANOMA VIA BLOCKING GENOMIC INSTABILITY” (THE REGENTS OF THE UNIVERSITY OF CALIFORNIA, priority 2022, published 2026)

Tested on: KRAS^G12C PDAC cell lines (MIAPaCa-2, XWR200)
Assay: Long-term clonogenic growth, acquired MAPKi resistance in PDAC cell lines
Format: cell-based, human
Settings: combined with MAPKi (type II RAFi+MEKi or KRAS G12Ci+MEKi); FIG. 6A to 6F
Excerpt: FIGS. 6A-6J. DNA-PKi co-treatment prevents acquired MAPKi-resistance in KRAS^G12 human pancreatic ductal adenocarcinoma and non-small cell lung carcinoma cell lines. FIGS. 6A to 6J: Long-term clonogenic growth of PDAC (MIAPaCa-2, XWR200) (6A to 6F) or NSCLC (H358, H2122) (6G to 6J) cell lines showing acquired-resistant colonies to MEKi alone, type II RAFi+MEKi, or KRAS G12Ci+MEKi and their suppression by indicated co-treatments with DNA-PKi (NU7026) and/or PARPi (ABT888) at indicated concentrations. Top, representative cultures; bottom, quantifications over n=4 fields (mean±SD). Data representative of 2 independent repeats. Seeding densities (cells/well in 6-well dishes) and culture durations: MIAPaCa-2 (10,000; 30 days for 6A-6C), XWR200 (150,000; 23 days for 6D, 30 days for 6E, 26 days for 6F), H358 (40,000; 14 days for 6G, 29 days for 6H, 26 days for 6I), H2122 (20,000, 22 days for 6J). […]
For clonogenic assay, cells were plated at indicated cell densities in six-well plates and treated with inhibitor(s) the next day. […] Formazan was then dissolved in 100 μL DMSO, and the absorbance values were measured using an ELISA reader (SpectraMax Plus 384) at the wavelength of 570 nm, blanked with DMSO solution. […]

| Compound | suppression of acquired MAPKi resistance, number of PDAC cell lines |
| --- | --- |
| C[C@]1(c2nc3c(C(N)=O)cccc3[nH]2)CCCN1 [ABT888, veliparib] | generally ineffective |
| O=c1cc(N2CCOCC2)oc2c1ccc1ccccc12 [NU7026] | two of two |
